# Experimental data as given in the OPERA property sets (Mansouri et al. 2018).
row,logP,SMILES
1,2.19,Cc1csc(S(C)=O)c1[N+](=O)[O-] (stereo not drawn)
2,2.44,CCS(=O)c1nc(C)c([N+](=O)[O-])c(C)c1C#N (stereo not drawn)
3,1.4,CS(=O)c1ccc([N+](=O)[O-])s1 (stereo not drawn)
4,0.91,CS(=O)c1cccs1 (stereo not drawn)
5,1.71,CS(=O)c1sccc1Br (stereo not drawn)
6,3.82,CC(=O)c1sc(S(C)=O)c(-c2ccc(Cl)cc2)c1C (stereo not drawn)
7,3.01,CS(=O)c1nc(-c2ccccc2)cc(C(F)(F)F)n1 (stereo not drawn)
8,1.74,CCS(=O)c1ccc([N+](=O)[O-])cn1 (stereo not drawn)
9,2.52,CCCS(=O)c1sccc1[N+](=O)[O-] (stereo not drawn)
10,2.31,CCS(=O)c1ccc(Cl)cc1S(C)(=O)=O (stereo not drawn)
11,2.31,CCS(=O)c1sc(Cl)cc1C#N (stereo not drawn)
12,2.22,CCS(=O)c1sc(C#N)c(C)c1C(C)=O (stereo not drawn)
13,1.78,CCS(=O)c1sc(C#N)cc1C#N (stereo not drawn)
14,2.65,Cc1sc(S(C)=O)c([N+](=O)[O-])c1C (stereo not drawn)
15,1.31,CS(=O)c1sc(C#N)cc1C#N (stereo not drawn)
16,3.31,CC(=O)c1sc(S(C)=O)c(C#N)c1-c1ccc(Cl)cc1 (stereo not drawn)
17,2.81,CCS(=O)c1sc(C(C)=O)c(C)c1[N+](=O)[O-] (stereo not drawn)
18,2.27,CCOC(=O)c1cc(C#N)c(S(C)=O)s1 (stereo not drawn)
19,3.36,Cc1c(C#N)sc(S(C)=O)c1-c1ccccc1 (stereo not drawn)
20,2.1,CCS(=O)c1c(Cl)cncc1Cl (stereo not drawn)
21,2.29,CCS(=O)c1cnc2ccccc2n1 (stereo not drawn)
22,1.77,CCS(=O)c1nc(C)cc(C)c1C#N (stereo not drawn)
23,3.26,CC(=O)c1sc(S(C)=O)c(-c2ccccc2)c1C (stereo not drawn)
24,2.18,CCCS(=O)c1sc(C#N)cc1C#N (stereo not drawn)

row,logP,SMILES
1,2.02,COc1c(C#N)sc(S(C)=O)c1C#N (stereo not drawn)
2,2.15,CCS(=O)c1ccc([N+](=O)[O-])cc1C#N (stereo not drawn)
3,2.35,CCS(=O)c1sc(C#N)c(OC)c1C#N (stereo not drawn)
4,3.18,CC(=O)c1sc(S(C)=O)c(-c2ccc(Cl)cc2)c1N (stereo not drawn)
5,2.22,CCS(=O)c1sc(C(C)=O)c(C)c1C#N (stereo not drawn)
6,5.11,CCCCCC1(c2ccc(S(=O)CC)c([N+](=O)[O-])c2)OCCO1 (stereo not drawn)
7,0.91,CS(=O)c1ccsc1 (stereo not drawn)
8,1.82,CCS(=O)c1sc(C(C)=O)c(N)c1C#N (stereo not drawn)
9,3.8,Cc1c(C#N)sc(S(C)=O)c1-c1ccc(Cl)cc1 (stereo not drawn)
10,2.15,CS(=O)c1sc(C#N)c(Cl)c1C#N (stereo not drawn)
11,2.95,CCCS(=O)c1sc(C#N)c(Cl)c1C#N (stereo not drawn)
12,3.82,CCS(=O)c1ccc(C(=O)c2ccccc2)cc1[N+](=O)[O-] (stereo not drawn)
13,3.2,CS(=O)c1scc(-c2ccccc2)c1[N+](=O)[O-] (stereo not drawn)
14,2.8,CCC(=O)c1ccc(S(=O)CC)c([N+](=O)[O-])c1 (stereo not drawn)
15,1.69,CS(=O)c1sccc1[N+](=O)[O-] (stereo not drawn)
16,4.36,CCCCCC(=O)c1ccc(S(=O)CC)c([N+](=O)[O-])c1 (stereo not drawn)
17,2.43,CCS(=O)c1ccc2ccccc2n1 (stereo not drawn)
18,1.31,CCS(=O)c1ccc(C(C)=O)s1 (stereo not drawn)
19,0.96,CS(=O)c1sccc1C#N (stereo not drawn)
20,2.93,CC(C)CS(=O)c1sccc1[N+](=O)[O-] (stereo not drawn)
21,2.06,CCS(=O)c1sccc1[N+](=O)[O-] (stereo not drawn)
22,3.44,CCCCS(=O)c1sc(C#N)c(Cl)c1C#N (stereo not drawn)
23,2.64,CCS(=O)c1sc(C(C)=O)c(Cl)c1C#N (stereo not drawn)
24,2.64,CCCCS(=O)c1sc(C#N)cc1C#N (stereo not drawn)
